A value given as a limit tells only on which side of the number the result lay.

Data set [1] deals with BMDMs from WT and Nod2^2939iC (m/m) mice. Kind of data set: Cytokine secretion by stimulated BMDMs (ELISA, immunoblotting). In kind it is cell-based, mouse. As to the method:
Macrophage culture and treatment. BMDMs were cultured as described (Park et al., Science 297: 2048, 2002). Confluent cultures were treated with different bacterial components including MDP (Bachem), synthetic peptidoglycan-Pam3Cys (InvivoGen), natural gram positive peptidoglycan (from S. aureus, Sigma), LPS (from E. coli, Sigma), and CpG-DNA (TIB MOLBIOL). At the indicated time points the cells or culture supernatants were collected and used to prepare cytoplasmic and nuclear protein extracts or total cellular RNA.
Gene expression analyses. Protein lysates were prepared from tissues and cultured macrophages, separated by SDS-polyacrylamide gel electrophoresis, transferred to Immobilon membranes (Millipore) and analyzed by immunoblotting. Total cellular RNA was extracted using TRIZOL (Invitrogen). cDNA was generated using SuperScript II (Invitrogen) and the amounts of the different mRNAs were measured by real-time PCR using GAPDH mRNA for normalization. Primer sequences are available upon request. Cytokine levels were measured using enzyme linked immunoadsorbent assays (ELISA).
On the technique in general: An ELISA detects its analyte on a solid surface through an enzyme-linked reagent.

The next data set concerns WT and Nod2^2939iC mice. The data set is described as follows: DSS colitis with IL-1RA or antibiotic treatment, body weight, survival and histological scoring. It counts as in vivo. The settings on record: for mortality: 3% DSS for 6 days, by 10 days after DSS exposure. As to the method: DSS colitis, IL-1RA treatment and histological scoring. Mice (8-12 weeks old) were given DSS (ICN Biomedicals Inc.) in the drinking water for 6 days as indicated and placed on regular water thereafter. When indicated, mice were also treated with neomycin sulfate (1.5 g/L) and metronidazole (1.5 g/L) (both from Sigma) in the drinking water or injected i.p. with either IL-1RA (Kineret®, Amgen Inc.) (100 mg/kg) in PBS or PBS alone once daily throughout the experiment. […] Histological scoring of fixed (10% formaldehyde) and sectioned (paraffin embedded) tissue was performed in a blinded manner. The scores were: 0=normal, 1=moderate mucosal inflammation without ulcer, 2=severe mucosal inflammation with ulcer (<1 mm) or no ulcer, 3=severe mucosal inflammation with ulcer (1-3 mm), 4=severe mucosal inflammation with ulcer (>3 mm).

Consider `CC(=O)N[C@H]1C(O)O[C@H](CO)[C@@H](O)[C@@H]1O[C@H](C)C(=O)N[C@@H](C)C(=O)N[C@H](CCC(=O)O)C(N)=O` (mixture of isomers) [MDP, muramyl dipeptide], for which the IL-6 secretion entry in data set [1] (BMDMs stimulated with MDP) is “neither IL-6 nor TNFα were secreted”. In data set [1] (Nod2^2939iC macrophages, MDP 1 μg/ml, 24 hrs), the “release of mature IL-1β” value is recorded as “stimulated release of mature IL-1β”.
In the case of “IL-1RA: IL-1 receptor antagonist (IL-1RA) (Kineret®, Amgen Inc.)”, the “Average body weight loss” value in the data set on WT and Nod2^2939iC mice (3% DSS in drinking water for 6 days, IL-1RA 100 mg/kg i.p. once daily from the start of DSS exposure, WT and Nod2^2939iC mice) was “improved”. For the same molecule, the “differences in weight loss and inflammatory score between the genotypes” value with WT and Nod2^2939iC mice (3% DSS plus IL-1RA 100 mg/kg/day, WT vs Nod2^2939iC mice) is reported as “abolished”. In addition, the histological score entry in the data set on WT and Nod2^2939iC mice (11 days after initiation of 3% DSS, IL-1RA 100 mg/kg/day i.p., WT and Nod2^2939iC mice) is “improved”. Moreover, in the data set with WT and Nod2^2939iC mice (11 days after initiation of DSS plus IL-1RA (100 mg/kg/day), WT and Nod2^2939iC mice), the “colon histology: inflammation and ulceration compared to DSS alone” value is “decreased inflammation and ulceration”.
One may read the mortality as the percentage killed. Read a high mortality as fewer survivors. With dextran sodium sulfate [DSS], the mortality in the data set with WT and Nod2^2939iC mice (Nod2^2939iC mice (n=16)) is 37.5%; in the data set on WT and Nod2^2939iC mice (WT mice (n=19)) it was 0%. In addition, the “time to death after DSS administration” value in the data set with WT and Nod2^2939iC mice (6% DSS without oral antibiotics, WT and Nod2^2939iC mice) was at most 9 days.

(Values after US20080260753A1, “Mouse Models of Crohn's Disease and a Method to Develop Specific Therapeutics” (priority 2004, published 2008).)
